# Measured values as given in patent US10131639B2, “Formulations of 2-(tert-butylamino)-4-((1R,3R,4R)-3-hydroxy-4methylcyclohexylamino)-pyrimidine-5-carboxamide” (Signal Pharmaceuticals, LLC, priority 2014, dated 2018).
# Read-outs that look alike come from different tables or passages of the source.
# Tests used:
# [1] = Phase 1 study Part 1: plasma pharmacokinetics after multiple oral doses of Compound 1 as AIC (QD×6 days) in healthy subjects; assay type: in vivo, human; conditions: for AUC / concentration at 24 h / Cmax: geometric mean (geometric CV%); for AUC: read-out: AUC0-τ (τ = 24 hours); for concentration at 24 h: read-out: Cmin (plasma concentration at 24 hours postdose); for Cmax: healthy subjects
# Experimental: Part 1 was an open label, multiple dose, three period, fixed sequence study to evaluate the effect of Compound 1 on JNK activity following UV irradiation.
# On Day 1, after a minimum of an 8-hour fast, subjects received the first dose of Compound 1. All subjects received the following oral doses of Compound 1 in the fixed sequence below: • Treatment A: 60 mg Compound 1 as AIC, QD×6 days; • Treatment B: 160 mg Compound 1 as AIC, QD×6 days; and • Treatment C: 400 mg Compound 1 as AIC, QD×6 days.
# All subjects received the following oral doses of Compound 1 as AIC: • Days 1 through 6: Treatment A: 60 mg Compound 1 AIC, QD×6 days; • Days 7 through 12: Treatment B: 160 mg Compound 1 AIC, QD×6 days; and • Days 13 through 18: Treatment C: 400 mg Compound 1 AIC, QD×6 days.
# The treatments were administered in the morning following an overnight fast of at least 8 hours. All doses were administered with 240 mL of noncarbonated, room temperature water. Water was allowed as desired except for 1 hour before and 1 hour after drug administration. The first meal following the morning dose on the sixth day of each dosing period was 4 hours postdose. On all other dosing days, the next meal/snack was served after a minimum 2 hours after dosing.
# Blood samples for Compound 1 plasma PK analysis were collected at the following time points on Days 6, 12, and 18: predose and 0.5, 2, 4, 6, 10, 12, and 24 hours postdose.
# Concentrations of Compound 1 in plasma were measured using a validated liquid chromatography tandem mass spectrometry (LC-MS/MS) assay. In Part 2, concentrations of Compound 1 in whole blood were measured using a validated LC-MS/MS method.
# Plasma and whole blood PK parameters were derived for Compound 1 by noncompartmental analysis. Actual sampling times were used in the calculation of PK parameters.
# AUCτ: AUC from time zero to tau, where tau is the dosing interval.
# Cmax: Maximum observed plasma concentration.
# Cmin: Minimum observed plasma concentration.
# [2] = tested on: UVB-induced phospho c-jun expression in skin; assay: Phospho c-Jun immunohistochemistry of UVB-irradiated skin biopsies: quantitative analysis (integrated optical density); assay type: in vivo, human
# Source text: A total of four skin biopsies were taken, one at baseline and one each on the sixth day of each treatment period.
# (§1) On baseline (Day −1) and on the sixth day of each dosing period (Days 6, 12, and 18), the skin test sites were delineated on the subject's upper buttock between the beltline and the natal cleft on the right side. The right side of the buttock was divided into four different test sites, one site for 2×MED irradiation at baseline and each of the three dosing periods. Each test site was a minimum of 3 cm×3 cm. Subjects received 2×MED UV irradiation at baseline (Day −1) at approximately the same time that irradiation was scheduled on Days 6, 12, and 18, which was 2 hours postdose. Eight hours after UV irradiation (±10 minutes), a skin punch biopsy was taken from the UV exposure site. The biopsies were processed into tissue slides by a third party and analyzed by immunohistochemistry (IHC). This third party was blinded to the treatment periods (baseline and doses).
# (§2) Phospho-c-Jun expression in biopsies was analyzed by IHC. Phospho-c-Jun IHC data were subjectively scored on a scale of 0 to 4 based on the intensity and number of epidermal keratinocyte nuclei stained within the tissue section by trained individuals blinded to treatment. The IHC was also analyzed by automated measurement of integrated optical density.
# Phospho c-Jun IHC images were analyzed at Quintiles for integrated optical density of positive nuclear staining using Aperio imaging software (Leica Biosystems). The Phospho c-jun score (Optical Density Scale) reflects the percentage of nuclei with ‘3+’ staining intensity (the cutoff for determining positive staining) as determined by the Aperio nuclear phospho c-jun quantitative image analysis algorithm.
# [3] = tested on: UVB-induced phospho c-jun expression in skin; assay: Phospho c-Jun immunohistochemistry of UVB-irradiated skin biopsies: histopathology scores (scale 0-4); assay type: in vivo, human
# Source text: as §1, §2
# Phospho c-Jun immunohistochemistry (IHC) images were scored by 2 independent pathologists from Quintiles using a scoring scale of 0-4. The percentage of epithelial c-Jun positive nuclei was scored as follows: […]
# [4] = Earlier human experience with Compound 1 (doses up to 480 mg QD×14 days); assay type: in vivo; conditions: healthy subjects
# [5] = Hygroscopicity by dynamic vapor sorption (DVS); assay type: physicochemical
# Source text: DVS: A portion of the sample was loaded into a quartz sample holder and tested using DVS-Advantage system in two continuous adsorption/desorption cycles. The settings are described as follows:
# Adsorption/desorption cycle 1: 50 to 95 to 0% RH;
# Adsorption/desorption cycle 2: 0 to 95 to 0% RH;
# in vivo = conditions: dog
# [6] = human, plasma, Treatment A: 60 mg as AIC, oral QD×6 days, N=15
# [7] = human, plasma, Treatment B: 160 mg as AIC, oral QD×6 days, N=15
# [8] = human, plasma, Treatment C: 400 mg as AIC, oral QD×6 days, N=15
smiles,measurement,setting,value
"C[C@@H]1CC[C@@H](Nc2nc(NC(C)(C)C)ncc2C(N)=O)C[C@H]1O [Compound 1, 2-(tert-butylamino)-4-((1R,3R,4R)-3-hydroxy-4-methylcyclohexylamino)-pyrimidine-5-carboxamide]",increase of systemic exposure (AUC and Cmax) with dose,"[1]; dose increased from 60 mg to 400 mg, multiple oral doses",more than dose-proportional
same,half-life,"[1]; human, plasma, oral, following multiple doses (60-400 mg QD), read-out: mean terminal half life",14 to 21 h
same,AUC,[1]; [6],2290 ng·h/mL
same,concentration at 24 h,[1]; [6],22 ng/mL
same,Tmax,"[1]; human, plasma, Treatment A: 60 mg as AIC, oral QD×6 days, median (minimum, maximum), N=15, read-out: Tmax",1.95 h
same,AUC,[1]; [7],8560 ng·h/mL
same,concentration at 24 h,[1]; [7],65 ng/mL
same,Tmax,"[1]; human, plasma, Treatment B: 160 mg as AIC, oral QD×6 days, median (minimum, maximum), N=15, read-out: Tmax",1.95 h
same,AUC,[1]; [8],31300 ng·h/mL
same,concentration at 24 h,[1]; [8],212 ng/mL
same,Tmax,"[1]; human, plasma, Treatment C: 400 mg as AIC, oral QD×6 days, median (minimum, maximum), N=15, read-out: Tmax",1.97 h
same,Tmax,"[1]; human, plasma, following single or multiple oral doses at the dose levels evaluated, postdose, read-out: median Tmax",1 to 4 h
same,Cmax,"[1]; human, Treatment A: 60 mg as AIC, oral QD×6 days, plasma, N=15",419 ng/mL
same,Cmax,"[1]; human, Treatment B: 160 mg as AIC, oral QD×6 days, plasma, N=15",1460 ng/mL
same,Cmax,"[1]; human, Treatment C: 400 mg as AIC, oral QD×6 days, plasma, N=15",4460 ng/mL
same,change from baseline in phospho c-jun staining (integrated optical density),"[2]; 60 mg QD×6 days, biopsy 8 hours after 2×MED UVB",not decreased
same,percentage of subjects with a decrease in optical density score compared to baseline,[2]; 60 mg dose (4/14),29%
same,decrease from baseline in phospho c-jun staining (integrated optical density),"[2]; 160 mg QD×6 days, biopsy 8 hours after 2×MED UVB, p=0.18",7.5%
same,percentage of subjects with a decrease in optical density score compared to baseline,[2]; 160 mg dose (11/13),85%
same,decrease from baseline in phospho c-jun staining (integrated optical density),"[2]; 400 mg QD×6 days, biopsy 8 hours after 2×MED UVB, p<0.0001",29.5%
same,percentage of subjects with a decrease in optical density score compared to baseline,[2]; 400 mg dose (13/13),100%
same,inhibition of UVB-induced phospho c-jun expression in skin,"[2]; 60, 160, 400 mg QD×6 days, automated quantitative image analysis",dose-dependent manner
same,percentage of individuals showing either no change or a decrease in histopathology score,[3]; 60 mg dose group (8/15),53%
same,percentage of individuals showing either no change or a decrease in histopathology score,[3]; 160 mg dose group (10/14),71%
same,percentage of individuals showing either no change or a decrease in histopathology score,[3]; 400 mg dose group (11/14),79%
same,change from baseline in median histopathology scores,"[3]; 60, 160, 400 mg QD×6 days, scale 0-4, 2 independent pathologists",not significantly affected
same,tolerability,[4],well tolerated
same,"Hygroscopicity (80% RH, 25° C., cycle 1 sorption)","[5]; DVS water uptake, L-tartrate: hydrate, difference between 20% RH and 80% RH",0.17%
same,"hygroscopicity (sorption/desorption, in words)","[5]; DVS, 25° C.",not hygroscopic
same,AUC at 28 days,in vivo,81200 ng·h/mL
